The test system of one assay is IκB-α. Nature of the assay: Western blot of IκB-α degradation in LPS-stimulated RAW-Blue cells. The format is cell-based, murine. The note with it: LPS 1 μg/mL, Pd-Ib 5, 10, 20 μg/mL, 20 h; compared to LPS-stimulated macrophage. How it is done:
Data are derived from three independent experiments and presented as mean±SEM. ^#Compared with control group. *P<0.05 is compared with LPS-alone group.
After Raw-Blue cells are treated with LPS and Pd-Ib, whole cell extract is prepared with lysis buffer [1% Triton X-100, 0.1% SDS, 0.5% deoxycholate, 1 mM EDTA, 20 mM Tris (pH 7.4), 150 mM NaCl, 10 mM NaF, 1 mM Na3VO4, 0.1 mM phenylmethylsulfonyl fluoride and one protease inhibitor cocktail tablet (Roche, USA)]. Total protein concentration is measured using a protein assay kit, followed by centrifugation at 13,500 rpm for 15 minutes at 4° C., then 10-25 μg of protein from the supernatants is then separated on 10% sodium dodecylsulphate-polyacrylamide gel (SDS-PAGE) and transferred on to polyvinylidene difluoride membranes. After blocking with 5% skim milk powder in Tris-buffered saline-Tween (TBST; 50 mM Tris, 150 mM NaCl, pH 7.4; 0.01% Tween-20) for 1 hour at room temperature, the membrane is then incubated with primary antibody (1:5,000 dilution) in 5% skim milk in TBST overnight at 4° C. […] The membrane is rewashed (TBST; 3×10 min), and the immune-reactive proteins are detected by enhanced chemiluminescence using X-ray film and ECL reagent. The protein bands are quantified by measuring the relative intensity compared to the control using Image J Software (version 4.1.7, NIH, USA).
For orientation: A western blot detects proteins with antibodies after separation by electrophoresis.

The next assay has as its system DSS-induced colitis. Briefly: Chronic DSS-induced colitis in mice (body weight, DAI, colon length, histology). It counts as in vivo, C57BL/6 mice. The text has this: 6-week-old male C57BL/6 mice weighing 18-20 g are purchased from the Laboratory Animal Services Center, the Chinese University of Hong Kong. The study protocols are approved by the committee for Care of Laboratory Animals in the School of Chinese Medicine at the Hong Kong Baptist University. The animals are divided into six groups (8-10 each group): control group (mice received drinking water and control diet), DSS-treated group (mice received 2.0% DSS in drinking and control diet), positive control group (mice received 2.0% DSS in drinking and ip, 300 mg/kg/day of sulfasalazine), Pd-Ib treatment groups will be given different dosed of Pd-Ib (mice received 2.0% DSS in drinking and i.p., 30, 60, or 120 mg/kg/day, respectively). As depicted in experiment design shown in FIG. 9, the mice are given tap water for 6 days, and then be divided into 6 groups. DSS is dissolved in distilled water at a concentration of 2% (w/v) and administered to the mice. The first day and the last day of DSS treatment are designated as day 7 and day 11, respectively. Mice are marked and checked daily for body weight. On day 12, body weight, stool consistency, and gross bleeding of each mouse are assessed, and animals showing body weight loss, diarrhea, and bleeding are selected for further analysis. All colitis mice are then interventions once daily for seven days, with eight mice in each group. The DSS model group is administered with tap water as negative control; while sulfasalazine is given as positive control (i.p., 300 mg/kg/day) and Pd-Ib treatment groups are given different doses of Pd-Ib (i.p., 30, 60, or 120 mg/kg/day, respectively). In parallel, a vehicle control group is also set up to receive drinking tap water without DSS throughout the entire experimental period. On day 19, after the mice are killed under anesthesia induced by pentobarbital sodium (i.p., 0.65 g/kg), the length of the large intestine is measured. All portions are stored at −80° C. for biochemical assays. The DAI is determined by scoring changes in the body weight, diarrhea, colon length, and bleeding. In brief, body weight, stool consistency, colon length and bleeding in the stool are monitored daily for determination of DAI. At the end of the experiment, mice are killed, and the colon is dissected from each mouse, and the length of which is measured from the ileocecal junction to the anal verge. The colons are opened longitudinally, gently washed with ice-cold PBS, fixed in 4% paraformaldehyde overnight, and embedded in paraffin. Five-micro-meter sections are stained with hematoxylin/eosin according to a standard procedure to evaluate colonic damage. Colitis is induced in all groups except the control group. Pd-Ib and sulfasalazine are administered to mice from day 6 to day 12. The change in body weight is taken as the difference between the body weight before induction of colitis and that immediately before sacrifice on day 13. The DAI score is determined by combining scores of (i) body weight loss, (ii) stool consistency, and (iii) stool bleeding. On day 13, the mice are sacrificed, and the colon lengths are measured. Data are expressed as mean±SEM, n=8 (^###p<0.001, compared with the control group; *p<0.05, **p<0.01, ***p<0.001, compared with DSS model group).

The subject of the next assay is TNF-α. Nature of the assay: ELISA of TNF-α in colon tissue, DSS-induced colitis. It counts as in vivo, C57BL/6 mice. The note with it: compared with the DSS treatment group. The protocol:
Colon levels of cytokines are assayed using commercially available ELISA kits. Briefly, colon samples are homogenized in phosphate buffer containing 0.05% Tween-20, 0.1 mM phenylmethylsulfonyl fluoride, 0.1 mM benzethonium chloride, 10 mM EDTA, and 20 IU aprotinin A. The homogenates are centrifuged at 16000 g at 4° C. for 15 min, and the supernatants are collected for the determination of levels of the cytokines, IL-6, IL-4, TNF-α, and IFN-γ, according to the manufacturer's protocols. The amount of protein in each sample is measured by the Bradford method, using bovine serum albumin as a standard. The levels of each cytokine are evaluated in each sample and expressed in […].
Colitis is induced in all groups except the control group. Pd-Ib and sulfasalazine are administered to mice from day 6 to day 12. On day 13, the mice are sacrificed, Data are expressed as mean±SEM, n=8 (*p<0.05, **p<0.01, ***p<0.001, compared with DSS model group).

`C/C=C(\C)C(=O)OC1C(=O)c2c(ccc3ccc(=O)oc23)OC1(C)C` (single isomer, unassigned; (+)) [Pd-Ib, (+)-3′-Angeloyloxy-4′-keto-3′,4′-dihydroseselin]: the IκB-α degradation entry in the assay with IκB-α is recorded as “inhibits IκB-α degradation in a dose-dependent manner”. In addition, the body weight loss result in the assay with DSS-induced colitis (30 mg/kg/day) is listed as “mildly effective in preventing body weight loss”; in the assay on DSS-induced colitis (60 mg/kg/day) it was “mildly effective in preventing body weight loss”; in the assay on DSS-induced colitis (120 mg/kg/day, compared with DSS model group after 10 days (p<0.05)), “recover the body weight loss significantly”. Besides, the DAI score entry in the assay with DSS-induced colitis (120 mg/kg/day, versus untreated mice (p<0.05)) is “significantly lower”. In addition, the “shortening of colon length” value in the assay with DSS-induced colitis (30, 60, 120 mg/kg/day (p<0.05, p<0.001)) is “rectified after administration with Pd-Ib at indicated concentration levels in a dose-dependent manner”. In the assay on DSS-induced colitis (30, 60, 120 mg/kg/day for seven days, compared with DSS group), the “histological manifestation of colon tissue sections” value is “far fewer infiltrating cells, a significantly lower degree of mucosal injury, and less edema”. For the same compound, in the assay on TNF-α, the “production of TNF-α in colon tissue” value is reported as “greatly reduces the production”.
